Measured values reported in patent US8741875B2, “Compounds as receptor modulators with therapeutic utility” (Allergan, Inc., priority 2009, dated 2014).

system: blood lymphocytes; assay: Lymphopenia Assay in Mice (blood lymphocyte depletion); assay type: in vivo, female C57BL6 mice; conditions: 10 mg/kg in mice (24, 48, 72 Hours), FIG. 1
Procedure: A lymphopenia assay in mice; as previously described, was employed to measure the in vivo blood lymphocyte depletion after dosing with the test compound: [3-({4-[(5-phenylpentyl)oxy]-3-(2-thienyl)benzyl}amino)propyl]phosphonic acid Compound 6. This S1P1 modulator, [3-({4-[(5-phenylpentyl)oxy]-3-(2-thienyl)benzyl}amino)propyl]phosphonic acid Compound 6 is useful for S1P-related diseases and exemplified by the lymphopenia in vivo response.
Test drugs, were prepared in a solution containing 3% (w/v) 2-hydroxy propyl β-cyclodextrin (HPBCD) and 1% DMSO to a final concentration of 1 mg/ml, and subcutaneously injected to female C57BL6 mice (CHARLES RIVERS) weighing 20-25 g at the dose of 10 mg/Kg. Blood samples were obtained by puncturing the submandibular skin with a Goldenrod animal lancet at different time intervals such as: 24, 48, 72 (and 96 h) post drug application. Blood was collected into microvettes (SARSTEDT) containing EDTA tripotassium salt. Lymphocytes in blood samples were counted using a HEMAVET Multispecies Hematology System, HEMAVET HV950FS (Drew Scientific Inc.). (Hale, J. et al Bioorg. & Med. Chem. Lett. 14 (2004) 3351

Row | Structure (SMILES) | Lymphopenia
1 | O=P(O)(O)CCCNCc1ccc(OCCCCCc2ccccc2)c(-c2cccs2)c1 [Compound 6, [3-({4-[(5-phenylpentyl)oxy]-3-(2-thienyl)benzyl}amino)propyl]phosphonic acid] | induced

same assay, conditions: mice, 10 mg/Kg subcutaneously, after 24 hours, FIG. 1

Row | Structure (SMILES) | lymphocyte count (number of lymphocytes)
2 | O=P(O)(O)CCCNCc1ccc(OCCCCCc2ccccc2)c(-c2cccs2)c1 [Compound 6, [3-({4-[(5-phenylpentyl)oxy]-3-(2-thienyl)benzyl}amino)propyl]phosphonic acid] | < 1 10^3/μL blood

target: T1, human S1P1 receptor (Homo sapiens, UniProt P21453); assay: GTP γ35S binding assay for S1P1 activity; assay type: biochemical; conditions: membranes, 30 min at 25° C., read-out: S1P1 EC50 (Activity potency: S1P1 receptor from GTP γ35S)
T1 construct: expressed in transfected cells; membranes used
Procedure: Compounds were tested for S1P1 activity using the GTP γ^35S binding assay. These compounds may be assessed for their ability to activate or block activation of the human S1P1 receptor in cells stably expressing the S1P1 receptor.
GTP γ^35S binding was measured in the medium containing (mM) HEPES 25, pH 7.4, MgCl2 10, NaCl 100, dithitothreitol 0.5, digitonin 0.003%, 0.2 nM GTP γ^35S, and 5 μg membrane protein in a volume of 150 μl. Test compounds were included in the concentration range from 0.08 to 5,000 nM unless indicated otherwise. Membranes were incubated with 100 μM 5′-adenylylimmidodiphosphate for 30 min, and subsequently with 10 μM GDP for 10 min on ice. Drug solutions and membrane were mixed, and then reactions were initiated by adding GTP γ^35S and continued for 30 min at 25° C. Reaction mixtures were filtered over Whatman GF/B filters under vacuum, and washed three times with 3 mL of ice-cold buffer (HEPES 25, pH7.4, MgCl2 10 and NaCl 100). Filters were dried and mixed with scintillant, and counted for ^35S activity using a β-counter. Agonist-induced GTP γ^35S binding was obtained by subtracting that in the absence of agonist. Binding data were analyzed using a non-linear regression method. In case of antagonist assay, the reaction mixture contained 10 nM S1P in the presence of test antagonist at concentrations ranging from 0.08 to 5000 nM.

T1 sequence (P21453 whole entry): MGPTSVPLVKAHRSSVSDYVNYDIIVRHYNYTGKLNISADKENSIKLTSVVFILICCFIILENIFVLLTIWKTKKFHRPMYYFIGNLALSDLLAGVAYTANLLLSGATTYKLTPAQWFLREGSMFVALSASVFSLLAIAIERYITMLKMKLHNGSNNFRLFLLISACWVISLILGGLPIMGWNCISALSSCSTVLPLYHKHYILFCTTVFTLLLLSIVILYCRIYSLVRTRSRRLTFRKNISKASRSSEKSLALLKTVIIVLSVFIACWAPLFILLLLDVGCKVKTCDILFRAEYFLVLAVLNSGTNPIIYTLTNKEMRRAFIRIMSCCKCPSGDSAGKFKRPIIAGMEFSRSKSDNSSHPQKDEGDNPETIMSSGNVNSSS

Row | Structure (SMILES) | EC50
3 | O=P(O)(O)CCCNCc1ccc(OCCCCCc2ccccc2)c(-c2cccs2)c1 [Compound 6, [3-({4-[(5-phenylpentyl)oxy]-3-(2-thienyl)benzyl}amino)propyl]phosphonic acid] | 1.3 nM
4 | O=P(O)(O)CCCNCc1ccc(OCCCCCc2cccc(Cl)c2)c(-c2ccco2)c1 [Compound 39, (3-{[4-{[5-(3-chlorophenyl)pentyl]oxy}-3-(2-furyl)benzyl]amino}propyl)phosphonic acid] | 32.8 nM
5 | Cc1cccc(CCCCCOc2ccc(CNCCCP(=O)(O)O)cc2-c2ccco2)c1 [Compound 40, (3-{[3-(2-furyl)-4-{[5-(3-methylphenyl)pentyl]oxy}benzyl]amino}propyl)phosphonic acid] | 34.9 nM
6 | O=P(O)(O)C(F)(F)CCNCc1ccc(OCCCCCc2ccccc2)c(-c2ccc(F)o2)c1 [Compound 41, [1,1-difluoro-3-({3-(5-fluoro-2-furyl)-4-[(5-phenylpentyl)oxy]benzyl}amino)propyl]phosphonic acid] | 53.6 nM
7 | CC(NCCCP(=O)(O)O)c1ccc(OCCCCCc2ccccc2)c(-c2cccs2)c1 (stereo not shown) [Compound 42, {3-[(1-{4-[(5-phenylpentyl)oxy]-3-(2-thienyl)phenyl}ethyl)amino]propyl}phosphonic acid] | 16.4 nM
8 | O=P(O)(O)CCCNCc1ccc(OCCCCCc2ccccc2)c(-n2cccn2)c1 [Compound 43, [3-({4-[(5-phenylpentyl)oxy]-3-(1H-pyrazol-1-yl)benzyl}amino)propyl]phosphonic acid] | 8.5 nM
9 | O=P(O)(O)CCCNCc1ccc(OCCCCCc2ccccc2)c(-n2cccc2)c1 [Compound 44, [3-({4-[(5-phenylpentyl)oxy]-3-(1H-pyrrol-1-yl)benzyl}amino)propyl]phosphonic acid] | 3.4 nM
10 | [2H]C([2H])(CCCCc1ccccc1)Oc1ccc(CNCCCP(=O)(O)O)cc1-c1ccco1 [Compound 45, [3-({3-(2-furyl)-4-[(5-phenylpentyl)oxy]benzyl}amino)propyl]phosphonic acid-d_2—] | 1.7 nM
11 | O=P(O)(O)CCCNCc1ccc(NCCCCCc2ccccc2)c(-c2ccco2)c1 [Compound 46, [3-({3-(2-furyl)-4-[(5-phenylpentyl)amino]benzyl}amino)propyl]phosphonic acid] | 1.5 nM
12 | O=P(O)(O)CCCNCc1ccc(NCCCCCc2ccccc2)c(-c2ncco2)c1 [Compound 47, [3-({3-(1,3-oxazol-2-yl)-4-[(5-phenylpentyl)amino]benzyl}amino)propyl]phosphonic acid] | 15.6 nM
13 | O=P(O)(O)CCCNCc1ccc(NCCCCCc2ccccc2)c(-c2nccs2)c1 [Compound 48, [3-({4-[(5-phenylpentyl)amino]-3-(1,3-thiazol-2-yl)benzyl}amino)propyl]phosphonic acid] | 17.4 nM
14 | O=P(O)(O)CCCNCc1ccc(OCCCCCc2ccccc2F)c(-c2ccco2)c1 [Compound 49, (3-{[4-{[5-(2-fluorophenyl)pentyl]oxy}-3-(2-furyl)benzyl]amino}propyl)phosphonic acid] | 1 nM
15 | O=P(O)(O)CCCNCc1ccc(OCCCCCc2ccccc2F)c(-c2ccoc2)c1 [Compound 50, (3-{[4-{[5-(2-fluorophenyl)pentyl]oxy}-3-(3-furyl)benzyl]amino}propyl)phosphonic acid] | < 25 nM
16 | O=P(O)(O)CCCNCc1cc(-c2ccco2)c(OCCCCCc2ccccc2)cc1F [Compound 51, [3-({2-fluoro-5-(2-furyl)-4-[(5-phenylpentyl)oxy]benzyl}amino)propyl]phosphonic acid] | 1 nM
